Measured values: patent publication US7658706B2, “Vascular graft sterilization and decellularization” (RTI Biologics, Inc., priority 2005, dated 2010)
Where two headings read alike, the source gives them in different places.

Legend:
[1] = test system: class I MHC antigens in human saphenous vein; test: Immunohistochemical stain for class I MHC antigens after decellularization (Example 1)
Procedure: The effectiveness of cell and cellular debris removal was evaluated using two detergent and two enzyme solutions at various concentrations (Table 2). […] One treatment group combined Triton-X 100 with sodium deoxycholate. Trypsin alone at 0.05% (w/v) or 1.0% (w/v) and in combination with 0.02% (w/v) EDTA were the enzyme solutions used in the decellularization process.
(§1) Samples were then rinsed in PBS at room temperature for 10 minutes while continuously shaking. Following the rinse step, the samples were cut in half and either prepared for histology or immunohistochemistry.
Immunohistochemistry was used to determine the level of antigens remaining in the tissue after treatment. […] Samples were prepared in frozen blocks and sectioned with a cryostat. The sections were thawed and then rinsed for blocking and antibody staining. Sections were incubated for 30 minutes in primary antibody (mouse anti-HLA-ABC class I MHC) solution and then for anther 30 minutes in diluted biotinylated secondary antibody (Vector ABC Elite kit) solution. An enzyme substrate, NovaRed (Vector), was used to stain the antibodies red. The counter stain was hematoxylin providing a blue contrast.
A Zeiss Axiophot 2 microscope with a motorized Ludl scanning stage was used with tile field mapping at 5× to capture the entire image in one frame. Particle analysis was performed in Image J to determine the ratio of antigen staining (red) to the total tissue sample.
A blue and green filter was applied to only allow red to pass. Obvious areas of antigen staining were removed due to this variation in red hue. […] All samples were compared to their negatives for a percentage of red staining.
This procedure was applied to all images. […] The treatment groups are labeled according to the detergent or enzyme used followed by the processing conditions. For the Trypsin and Trypsin+EDTA groups, the concentrations ranged from 0.05% (L) to 1.0% (H), the processing temperatures were 37° C. (L), 48° C. (M) and 55° C. (H), and the processing times were 6 hrs (L), 17 hrs (M) and 24 hrs (H).

[2] = test system: human greater saphenous vein; details: 0.075% SDS; cited from earlier work
[3] = test system: B. stearothermophilus spores; test: Suspension sterilization: survivor/reduction curves for spores in germicide; type: cell-based, Bacillus stearothermophilus
Description: The effectiveness of a sterilant is defined in terms of decimal reduction time (D-value). This is the exposure time (t) used under certain conditions to cause one log reduction (n) (90%) of the initial population. A suspension is expected to follow a predictable death rate regarding a plot of the amount of survivors over time. The negative reciprocal of the slope of regression lines of survivor curves gives the D-value where t=D×n n=[…]
(§2) In order to determine the reduction in spores after processing with cleaning agents, an effective and consistent method was developed. […] It was determined that residual hydrogen peroxide inhibited the growth at concentrations of 0.6% or higher for TSA plates and 6% or higher for blood plates (FIG. 12). It is believed that the catalase contained in the blood agar plates inactivated the hydrogen peroxide. […] Even though the blood agar plates allowed for dilutions as low as 1:10, the titre used was too low to detect more than a 3 log reduction in the process limiting the data collection for the survivor curves.
To ensure consistency, each vial was vortexed before each replicate and all of the material was removed from the pipette tip onto the plate. Disposable plate spreaders were used to prevent cross contamination. The moisture needed to be maintained at a certain level because the plates would dry out at 60° C., but if there was too much moisture the bacteria would streak across the plate and prevent an accurate count. The first procedure implemented was propping the plates open in a laminar flow hood to allow excessive moisture to dry. The second method employed was placing the plates in a beaker with a porous covering to trap some moisture while allowing the excess to evaporate.
Hydrogen peroxide at a concentration of 6% was used at temperatures of 40, 45 and 50° C. to calculate a curve for modeling the temperature effects on spore kill. […] Samples were removed and immediately placed in an ice bath at 10, 15, 20 and 30 min. The vial was well-mixed on a vortex, and then diluted 1:10 in series before plating.
Peracetic acid at concentrations of 0.1%, 0.05% and 0.005% were used only at 40° C. to calculate a curve for modeling the concentration effects on spore kill. […] Samples were removed and immediately placed in an ice bath at various time points depending on the concentration. The vial was well-mixed on a vortex, and then diluted 1:10 in series before plating.
(§3) Typically, a survivor curve is constructed with the initial population at time zero and the resultant populations at various time points. Since not all data points could be completed in the same day, some reduction curves were constructed to compare log reduction in the controls for each experiment over time. This normalized the data to its own experimental episode.

[4] = test system: B. stearothermophilus spores
Procedure: Before enumerating the population remaining on tissue following chemical processing, the amount recoverable from the tissue must be determined. The recovery process developed involves the use of sonication, mechanical shaking and agitation on a vortex. Veins were cut into 30 mm segments and clamped at one end. […] The samples were then cut from the clamps and split open over a centrifuge tube containing 39.9 ml of Letheen broth to expose the lumen to the recovery process. A new pair of scissors or a new scalpel blade were used for each vein and the segments were cut over the broth to catch anything that may not have adhered to the surface of the tissue.
The tubes were sonicated at room temperature for ten minutes to break the bacteria from the surfaces. The tubes were then placed on a shaker where they were for another 10 min. The Letheen broth containing the tissue sample was then vortexed for 30 s and diluted in a series of 1:10 dilutions with each dilution plated on blood agar plates. The plates were incubated overnight at 60° C.
The procedure for spike recovery was used to collect data for the reduction curves. Vein segments were inoculated and then treated in one of the following conditions. Hydrogen peroxide (6%) was analyzed at 40° C. and 50° C. while peracetic acid (0.1%) was only tested at 40° C. At each time point, three samples were spiked and treated with one control for recovery efficiency.
as §3
A control was used at each experimental episode to provide a correction factor for the treated samples. The recovered population divided by the correction factor provides the surviving population after treatment.

[5] = test system: Bacillus stearothermophilus; test: Growth inhibition by residual germicide on TSA and blood agar plates; type: cell-based
Procedure: as §2

B. stearothermophilus [6] = details: 6% in DI water, PBS (pH 6) or PBS (pH 7.2), 45° C., sonication
Procedure: In a separate study, 6% hydrogen peroxide was prepared in either DI water, PBS (pH 6) or PBS (pH 7.2). It was then used at 45° C. to treat B. stearothermophilus while under sonication.

collagen = test: Collagen denaturation, quantitative enzyme digestion assay (matrix integrity)
Procedure: One of the major structural components of the extracellular matrix that gives veins their strength is collagen. Damage to collagen can result in mechanical failures such as increased compliance or aneurism formation. It can also result in a cellular response due the exposure of the triple helix when stability is compromised. The amount of collagen denaturation was assessed to evaluate processing conditions with a quantitative enzyme digestion assay. […] Digested and undigested fractions are separated and hydrolyzed with concentrated hydrochloric acid (HCl) to release free amino acids from each fraction. Following neutralization of the acid in 1 N NaOH, levels of hydroxyproline (an amino acid present in high concentrations in collagen) are assessed in each fraction by a calorimetric method at a wavelength of 550 nm (Chloramine T binding, and reduction of the substrate DAB to a colored end product). The level of denatured collagen in a given sample is then expressed as a percent of the trypsin soluble fraction to the sum of both trypsin soluble and trypsin insoluble fractions.
Achieving the appropriate log reduction should not come at the expense of the integrity of the extracellular matrix. […] The effect of hydrogen peroxide at 6% at 40° C. and 50° C. on collagen was compared to PAA at 0.1% at the same specified temperatures.
Digested and undigested fractions are separated and hydrolyzed with concentrated hydrochloric acid (HCl) to release free amino acids from each fraction. Following neutralization of the acid in 1 N NaOH, levels of hydroxyproline (an amino acid present in high concentrations only in collagen) are assessed in each fraction by a calorimetric method (Chloramine T binding, and reduction of the substrate DAB to a colored end product). The level of denatured collagen in a given sample is then expressed as a percent of the trypsin soluble fraction to the sum of both trypsin soluble and trypsin insoluble fractions.

[7] = test system: enteric bacteria (E. coli, Enterococcus faecalis or Salmonella enteritidis); details: peroxide doses of 0.3 to 15%, 10 min; cited from earlier work
B. subtilis = details: hydrogen peroxide alone, 25° C.; cited from earlier work
[8] = test system: Bacillus atrophaeus spores; details: 7.5% hydrogen peroxide, room temperature, 6 hour incubation; cited from earlier work
B. stearothermophilus [9] = details: 26.5% hydrogen peroxide, 25° C.; cited from earlier work
[10] = Bradford Assay of nonspecific proteins in collagenase digested vein samples; set-up: species or system human; details: 0.1% peracetic acid versus 6% hydrogen peroxide (FIGS. 29, 30)
Procedure: In a further study, the efficiency of peracetic acid (PAA) versus hydrogen peroxide (HP) was investigated. Samples were treated in either 0.1% PAA or 6% HP and were exposed for varying lengths of time at varying temperatures.
Without wishing to be bound by theory, it is believed that the peracetic acid opens the collagen matrix up to allow for greater penetration of the tissue. It also believed to break down the proteins better than hydrogen peroxide. […] The Bradford Assay (Bradford, 1976) is used to quantify nonspecific proteins in collagenase digested vein samples. The Bradford Assay is a general protein assay, is based on an absorbance shift in a dye (Coomassie brilliant blue G-250 dye (CBBG)). CBBG has an absorbance shift when bound to arginine and hydrophobic amino acid residues (e.g., tryptophan, tyrosine, histidine and phenylalanine) present in protein. The reduction in antigenicity is correlated in the immunohistochemical staining (e.g., groups L and K from Example 5) and the histopathology scores (e.g., prototype recipe from Example 4).

human saphenous vein = test: Histology (H&E) for cellularity and matrix (Example 1); details: 0.05% Trypsin, 37° C., 6 or 24 hours (FIGS. 7, 8)
Procedure: as §1, with “Samples of human saphenous veins 10 mm in length were placed in each of the test solution at 37° C. or 48° C. for both 6 and 24 hours while continuously shaking. Samples” for “Samples”
Samples were placed in 10% buffered formalin immediately following the rinse step and remained there for at least 24 hours before further preparation. Then, the samples were embedded in paraffin and stained with hematoxylin and eosin (H&E) to determine cellularity.
The results of the immunohistochemical stain were compared to histology slides stained for cellularity (FIGS. 7 to 10). […] The extracellular matrix is preserved in each segment except with 1.0% Cholate at 48° C.

## O=C(O)CN(CCN(CC(=O)O)CC(=O)O)CC(=O)O [EDTA]
[1]; added to Triton at 0.25%, 6 hours, 37° C.
  effect of addition of EDTA on removal of cells: enhance the removal of cells
[1]; added to Trypsin
  effect of addition of EDTA on removal of antigens: inconsistent effect

## CCCCCCCCCCCCOS(=O)(=O)[O-].[Na+] [SDS, sodium dodecyl sulfate]
[2]
  transmural cell removal: > 94%

## OO [hydrogen peroxide]
[3]; 6% peroxide, 40° C., spores in suspension (FIG. 16)
  D-value: 47.39
[3]; 6% peroxide, 40° C., suspension
  time for a 6 log reduction: ~5 hours
[3]; 6% peroxide, 45° C., spores in suspension (FIG. 15)
  D-value: 23.0
[3]; 6% peroxide, 50° C., spores in suspension (FIG. 14)
  D-value: 9.87
[3]; 6% peroxide, 50° C., suspension
  time for a 6 log reduction: less than an hour
[3]; 6% peroxide, from 40° C. to 50° C., suspension
  reduction of the D-value by an increase in temperature: approximately 80%
[4]; 6% hydrogen peroxide, 50° C., spiked tissue
  time for a 6 log reduction: less than 40 minutes
[4]; 6% hydrogen peroxide, 50° C., spiked tissue (FIG. 20)
  D-value: 6.63
[4]; 6% peroxide with tissue, temperature not stated
  D-value with tissue: 5.34
[4]; 6% peroxide, 40° C., spiked tissue (FIG. 21)
  D-value: 15.17
[4]; 6% peroxide, temperature not stated
  decrease of D-value with tissue versus suspension: approximately 4 minutes
[5]; TSA plates
  residual concentration that inhibited the growth: ≥ 0.6%
[5]; blood plates
  residual concentration that inhibited the growth: ≥ 6%
B. stearothermophilus [6]
  effect of buffer/pH on sterilizing: a buffered solution may be more effective
collagen
  ratio of degraded collagen compared to untreated controls: significantly altered matrix properties
[7]
  log microbial reductions: below 0.2 log
B. subtilis
  D-value: 55.2 min
[8]
  growth of spores: No growth was detected
B. stearothermophilus [9]
  D-value: 4.7 min

## CC(=O)OO [peracetic acid]
[3]; 0.005% PAA, 40° C., spores in suspension (FIG. 19)
  D-value: 6.45
[3]; 0.05% PAA, 40° C., spores in suspension (FIG. 18)
  D-value: 1.90
[3]; 0.05% PAA, 40° C., suspension
  time for a 6 log reduction: 11 minutes
[5]; within the processing concentrations, blood agar plates (FIG. 13)
  growth inhibition by residual germicide: no inhibition was observed
collagen; 0.1% PAA (FIGS. 31, 32)
  amount of digestible hydroxyproline: did not increase the amount of digestible hydroxyproline
collagen; 6% hydrogen peroxide, 0.1% PAA, 50° C., one hour (FIG. 22)
  ratio of degraded collagen compared to untreated controls: significantly altered matrix properties
[10]
  efficiency in breaking down proteins: more efficient than 6% hydrogen peroxide in significantly breaking down proteins

## Trypsin
[1]; 1.0% Trypsin or 1.0%/0.02% Trypsin/EDTA, minimum of 48° C. and 17 hrs
  level of antigens: significantly reduced the level of antigens
Human saphenous vein
  cellularity in histology: still evidence of cells
collagen
  collagen degradation compared to untreated controls: less than half of the degradation of the untreated controls

## octylphenol ethoxylate [Triton]
collagen; Triton 1.0%, Cholate 0.25%, 48° C., 24 hours, constant agitation (FIG. 11)
  collagen degradation compared to untreated controls: A significant degradative effect was not seen
